Source: patent US20240018125A1, “CYCLIC ISOTHIOUREA DERIVATIVES AS CXCR4 MODULATORS” (ERMIUM THERAPEUTICS, priority 2020, published 2024)
pIC50: −log10 of the molar value. Where a name gives a salt, the structure may show the parent alone.

Experiments:
[1] = target: T1, Recombinant CXCR4 receptor (Homo sapiens, UniProt P61073); experiment: G.Validation fluorescence assay of CXCR4 receptor conformational changes in lipidic micelles SB2L4 and SB3L1; type: biochemical; settings: ligand 150 μM over basal state, 5 μM labelled CXCR4, 40 min
T1 construct: host or cells: HEK-293 T cells
T1 sequence (P61073 whole entry): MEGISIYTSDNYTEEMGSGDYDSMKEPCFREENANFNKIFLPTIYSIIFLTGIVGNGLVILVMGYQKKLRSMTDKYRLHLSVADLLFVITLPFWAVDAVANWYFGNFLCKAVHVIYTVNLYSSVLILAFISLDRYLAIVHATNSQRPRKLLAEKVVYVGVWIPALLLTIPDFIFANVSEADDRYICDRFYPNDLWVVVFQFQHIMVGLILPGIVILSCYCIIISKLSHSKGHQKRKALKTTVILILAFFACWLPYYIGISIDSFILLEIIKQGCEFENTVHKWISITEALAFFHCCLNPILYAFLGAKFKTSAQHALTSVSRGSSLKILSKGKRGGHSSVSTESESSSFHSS
From the text: G.Validation® assay is […] biotech proprietary fluorescence based assay that assesses conformational changes of a receptor upon activation/inactivation. Recombinant CXCR4 receptor is produced and purified from HEK-293 T cells using […] proprietary mixes. Receptor is then reconstituted in detergent buffers containing lipids mimicking the lipidic composition of dendritic cells (DC) and macrophages (SB2L4 and SB3L1). Thereafter, the receptor is labelled with a non-modifying probe allowing the detection of the activation state and conformational change of the receptor upon addition of a ligand. Indeed, the probe emission spectra maximum wavelength (Amax) shifts according to activation/inactivation of the receptor. Thus, kinetic of activation/inactivation of the receptor can be followed by monitoring Amax shift after addition of a ligand over time. Emission spectra were registered for 40 minutes after addition of each ligand. […] Activation/inactivation kinetics were also followed using an exemplary compound of formula (I), i.e.

[2] = test system: peripheral blood mononuclear cells (PBMCs) from healthy donors; experiment: IFN production by R848-activated PBMCs, quantified with twINNE luciferase reporter cell line; type: cell-based, human; settings: Homo sapiens, PBMC; read-out: IC50 of anti-inflammatory activity (IFN production by activated PBMCs)
How it was run: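 Healthy-donor PBMCs (4.10^6/mL, RPMI/10% FBS) were pre-treated with compound, then stimulated with R848 at 5 μg/mL for 24 h. Supernatants were put on twINNE cells, which carry luciferase under five ISREs, for 24 h, and Bright-Glo luminescence was read. IC50 values came from variable-slope dose-response fits.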

[3] = test system: Female Balb/c mice, pristane-induced lupus; experiment: In vivo pristane-induced lupus mouse model, anti-dsDNA antibody titers in serum by ELISA; settings: 15 mg/kg p.o. once daily, as of week 4
Procedure: Female Balb/c mice (6 to 8 weeks, ENVIGO, Indianapolis, USA) received a single i.p. injection with 0.5 mL of pristane (Sigma-Aldrich, St Louis, USA) to induce a lupus-like disease. That same day, once daily treatment was started (10 mL/kg), either with vehicle control (PBS) i.p., with prednisolone (Sigma-Aldrich, St Louis, USA) in PBS p.o. at a dose of 15 mg/kg (positive control), or with an exemplary compound of formula (I), i.e. Example 60, at a dose of either 3 mg/kg, 10 mg/kg or 30 mg/kg in PBS i.p. After 4, 6 and 8 weeks of dosing, sample bleeds for each mouse were collected via the orbital sinus, and immediately cold processed to sera and stored (50 μl) at −80° C. until analysis. In serum, anti-dsDNA antibody titers are determined using ELISA. Optical density was measured at 450 nm (OD450) using a microplate reader. Data are reported as anti-dsDNA Ab titers (OD), mean±S.E.M. as well as the statistical significance versus pristane-induced vehicle treated group using t-tests.

[4] = test system: 129S8 mice infected with influenza A virus H3 N2 (X31); experiment: In vivo immunomodulating effect (type 1 IFNs in BALF) in acute influenza inflammation model; parameters: species or system mouse; settings: mouse, in vivo

SMILES	pIC50 [2]	melting point	also measured
Cc1ccc(OCC(O)C(C)NC(C)C)c2c1CCC2 (centres unmarked) [ICI 118 551]	–	–	CXCR4 structural activation/inactivation, Amax shift in fluorescence [1]: did not show any significant effect
COc1cc2nc3scc(CSC4=NCc5ccccc5N4)n3c2cc1OC.Cl [Example 97, 3-(((3,4-dihydroquinazolin-2-yl)thio)methyl)-6,7-dimethoxybenzo[4,5]imidazo[2,1-b]thiazole hydrochloride]	< 4.49	238 to 240 °C	–
NC[C@H](O)c1ccc(O)c(O)c1 [Norepinephrine]	–	–	CXCR4 structural activation/inactivation, Amax shift in fluorescence [1]: did not show any significant effect
Cl.c1ccc2c(c1)CN=C(SCCC1CCCC1)N2 [Example 197, 2-((2-cyclopentylethyl)thio)-1,4-dihydroquinazoline hydrochloride]	4.49 to 5.00	42 to 50 °C	–
Cl.c1ccc(CC2CN=C(SCc3cn4cccnc4n3)N2)cc1 (centres unmarked) [Example 51, 2-(((5-benzyl-4,5-dihydro-1H-imidazol-2-yl)thio)methyl)imidazo[1,2-a]pyrimidine hydrochloride]	< 4.49	100 to 115 °C	–
C[C@]12C=CC(=O)C=C1CC[C@@H]1[C@@H]2[C@@H](O)C[C@@]2(C)[C@H]1CC[C@]2(O)C(=O)CO [prednisolone, reference compound]	–	–	anti-dsDNA Ab titers in serum vs vehicle-treated pristane-induced mice [3]: significantly reduced
CC(C)Cc1ccc(C(C)C(=O)O)cc1 (centres unmarked) [ibuprofen, reference compound]	–	–	concentration of IFNα in BALF vs vehicle-treated infected mice [4]: significantly lower; concentration of IFNβ in BALF vs vehicle-treated infected mice [4]: significantly lower; concentration of IFNλ2/3 in BALF vs vehicle-treated infected mice [4]: significantly lower
C1=C(CSC2=NCc3cccnc3N2)N2Cc3ccccc3CN=C2S1.Cl.Cl.Cl [Example 31, 3-(((1,4-dihydropyrido[2,3-d]pyrimidin-2-yl)thio)methyl)-5,10-dihydrobenzo[e]thiazolo[3,2-a][1,3]diazepine trihydrochloride]	≥ 5.00	194 to 203 °C	–
Fc1cccc2c1CN=C(SCC1=CSC3=NCc4ccccc4CN13)N2 (as salt: hydrochloride) [Example 23, 3-(((5-fluoro-1,4-dihydroquinazolin-2-yl)thio)methyl)-5,10-dihydrobenzo[e]thiazolo[3,2-a][1,3]diazepine dihydrochloride]	–	> 240 °C	–
COc1ccc(CC2(C)CN=C(SCC3=CSC4=NCc5ccccc5CN34)N2)cc1 (centres unmarked) (as salt: hydrochloride) [Example 34, 3-(((5-(4-methoxybenzyl)-5-methyl-4,5-dihydro-1H-imidazol-2-yl)thio)methyl)-5,10-dihydrobenzo[e]thiazolo[3,2-a][1,3]diazepine dihydrochloride]	–	173 to 180 °C	–
CC1(c2ccccc2)CN=C(SCC2=CSC3=NCc4ccccc4CN23)N1 (centres unmarked) (as salt: hydrochloride) [Example 30, 3-(((5-methyl-5-phenyl-4,5-dihydro-1H-imidazol-2-yl)thio)methyl)-5,10-dihydrobenzo[e]thiazolo[3,2-a][1,3]diazepine dihydrochloride]	–	195 to 200 °C	–
C1=C(CSC2=NCc3ccccc3N2)N2Cc3ccccc3CN=C2S1 (as salt: hydrochloride) [Example 11, 3-(((3,4-dihydroquinazolin-2-yl)thio)methyl)-5,10-dihydrobenzo[e]thiazolo[3,2-a][1,3]diazepine dihydrochloride]	–	189 to 193 °C	–
IC1=C(CSC2=NCc3ccccc3N2)N2CC(Cc3ccccc3)N=C2S1 (centres unmarked) (as salt: hydrochloride) [Example 110, 6-benzyl-3-(((1,4-dihydroquinazolin-2-yl)thio)methyl)-2-iodo-5,6-dihydroimidazo[2,1-b]thiazole dihydrochloride]	–	177 to 182 °C	–
C1=C(CSC2=NCc3ccccc3N2)N2CC(C3CCCCC3)N=C2S1 (centres unmarked) (as salt: hydrochloride) [Example 15, 6-cyclohexyl-3-(((3,4-dihydroquinazolin-2-yl)thio)methyl)-5,6-dihydroimidazo[2,1-b]thiazole dihydrochloride]	–	235 to 242 °C	–
Cl.c1ccc2c(c1)CN=C(SCCN1CCc3ccccc31)N2 [Example 115, 2-((2-(indolin-1-yl)ethyl)thio)-1,4-dihydroquinazoline hydrochloride]	4.49 to 5.00	82 to 88 °C	–
C1=C(CSC2=NCCc3ccccc3N2)N2Cc3ccccc3CN=C2S1 (as salt: hydrochloride) [Example 25, 3-(((4,5-dihydro-1H-benzo[d][1,3]diazepin-2-yl)thio)methyl)-5,10-dihydrobenzo[e]thiazolo[3,2-a][1,3]diazepine dihydrochloride]	–	> 250 °C	–
c1ccc(CC2CN=C(SCCN3CCCCCC3)N2)cc1 (centres unmarked) (as salt: hydrochloride) [Example 58, 1-(2-((5-benzyl-4,5-dihydro-1H-imidazol-2-yl)thio)ethyl)azepane dihydrochloride]	–	65 to 85 °C	–
Cl.c1ccc2c(c1)CN=C(SCCCN1CCCC1)N2 [Example 136, 2-((3-(pyrrolidin-1-yl)propyl)thio)-1,4-dihydroquinazoline dihydrochloride]	≥ 5.00	178 to 182 °C	–
